From patent US20040220094A1, “Inverse agonist and agonist peptides that stimulate/inhibit hair growth” (priority 2003, published 2004) come the findings set out here.

Non-standard residues stand in square brackets, D forms with d. Residues, ends and D or L forms follow the SMILES beside them. No end group written: not given here. *: point of attachment. Hydrocinnamoyl = O=C(CCc1ccccc1)*; Nle = CCCC[C@H](N)C(=O)O

Experiment [1] concerns the target T1, PTH1R receptor (Homo sapiens, UniProt Q03431).
T1 sequence (Q03431 27-593): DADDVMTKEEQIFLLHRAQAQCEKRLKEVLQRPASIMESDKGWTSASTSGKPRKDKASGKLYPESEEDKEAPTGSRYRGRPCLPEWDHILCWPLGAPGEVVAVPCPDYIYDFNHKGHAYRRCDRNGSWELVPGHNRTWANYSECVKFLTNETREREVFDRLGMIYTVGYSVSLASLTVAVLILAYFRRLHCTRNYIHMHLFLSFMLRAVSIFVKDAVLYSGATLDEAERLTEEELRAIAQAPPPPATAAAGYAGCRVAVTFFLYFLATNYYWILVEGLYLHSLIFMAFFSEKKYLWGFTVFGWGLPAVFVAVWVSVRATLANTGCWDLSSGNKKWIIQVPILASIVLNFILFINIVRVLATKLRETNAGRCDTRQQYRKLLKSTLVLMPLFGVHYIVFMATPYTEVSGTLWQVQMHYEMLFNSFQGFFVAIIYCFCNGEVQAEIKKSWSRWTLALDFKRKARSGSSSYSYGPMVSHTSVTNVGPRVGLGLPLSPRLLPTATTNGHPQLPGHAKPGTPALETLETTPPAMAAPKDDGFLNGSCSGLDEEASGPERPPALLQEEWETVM
The experiment is described as follows: potency of inverse agonist peptides (assay not specified).

For experiment [2], the target named is T1, PTH1R receptor. The experiment is described as follows: kidney-based assays. It is filed as binding. Conditions: kidney-based assay.
For experiment [3], the target named is T1, PTH1R receptor. The experiment is described as follows: bone-based assays. It is filed as binding. Particulars: bon-based assay.
Experiment [4] concerns the target T2, Type I PTH/PTHrP receptor (PTH1R receptor).
T2 chain: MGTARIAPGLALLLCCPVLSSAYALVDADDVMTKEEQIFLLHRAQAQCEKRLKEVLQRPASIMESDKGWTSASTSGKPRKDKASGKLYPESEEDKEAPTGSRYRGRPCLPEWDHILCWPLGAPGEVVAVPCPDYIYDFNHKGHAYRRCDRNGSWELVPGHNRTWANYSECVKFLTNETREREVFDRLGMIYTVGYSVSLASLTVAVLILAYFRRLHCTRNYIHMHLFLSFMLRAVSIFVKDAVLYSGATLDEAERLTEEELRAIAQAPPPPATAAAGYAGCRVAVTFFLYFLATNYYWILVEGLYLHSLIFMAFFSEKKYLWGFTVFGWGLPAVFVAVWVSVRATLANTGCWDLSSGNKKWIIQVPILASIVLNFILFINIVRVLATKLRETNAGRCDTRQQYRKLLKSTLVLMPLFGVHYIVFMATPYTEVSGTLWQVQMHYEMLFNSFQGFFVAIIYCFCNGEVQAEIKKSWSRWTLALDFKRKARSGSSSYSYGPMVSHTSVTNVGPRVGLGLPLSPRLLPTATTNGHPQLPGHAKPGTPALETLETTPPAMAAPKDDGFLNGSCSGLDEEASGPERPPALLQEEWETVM
The experiment is described as follows: kidney-based assay.

Experiment [5] has as its target T2, Type I PTH/PTHrP receptor (PTH1R …). Kind of experiment: bone-based assay.

For “Leu-Leu-His-Asn-Leu-Gly-Lys-Ser-Ile-Gln-Asp-Leu-Arg-Arg-Arg-Phe-Phe-Leu-His-His-Leu-Ile-Ala-Glu-Ile-His-Thr-Ala-NH2 (LLHNLGKSIQDLRRRFFLHHLIAEIHTA-NH2)”, the “fold more potent than PTHrP 7-34” value with PTH1R receptor [1] (relative to PTHrP 7-34) is “(which is 23 fold more potent than PTHrP 7-34);”.

As for “Leu-Leu-His-Asp-Leu-D-Trp-Lys(cyclization)-Ser-Ile-Gln-Asp(cyclization)-Leu-Arg-Arg-Arg-Phe-Phe-Leu-His-His-Leu-Ile-Ala-Glu-Ile-His-Thr-Ala-NH2”, the potency entry at PTH1R receptor [1] is “increased potency”.

By Ki is commonly meant the equilibrium dissociation constant of an inhibitor or competing ligand from its target. Read a high Ki as a looser hold on the target. `CCCC[C@H](NC(=O)[C@H](CO)NC(=O)[C@H](CO)NC(=O)[C@H](CC(C)C)NC(=O)[C@H](Cc1c[nH]cn1)NC(=O)[C@H](CCCCNC(=O)CCc1ccccc1)NC(=O)CNC(=O)[C@H](CC(C)C)NC(=O)[C@H](CC(N)=O)NC(=O)[C@H](Cc1c[nH]cn1)NC(=O)[C@H](CCCC)NC(=O)[C@@H](N)Cc1ccccc1)C(=O)N[C@@H](CCC(=O)O)C(=O)N[C@@H](CCCNC(=N)N)C(=O)N[C@H](C(=O)N[C@@H](CCC(=O)O)C(=O)N[C@@H](Cc1c[nH]c2ccccc12)C(=O)N[C@@H](CC(C)C)C(=O)N[C@@H](CCCNC(=N)N)C(=O)N[C@@H](CCCCN)C(=O)N[C@@H](CCCCN)C(=O)N[C@@H](CC(C)C)C(=O)N[C@@H](CCC(N)=O)C(=O)N[C@@H](CC(=O)O)C(=O)N[C@H](C(=O)N[C@@H](Cc1c[nH]cn1)C(=O)N[C@@H](CC(N)=O)C(=O)N[C@@H](Cc1ccc(O)cc1)C(=O)O)C(C)C)C(C)C` (H-F[Nle]HNLGK(Hydrocinnamoyl)HLSS[Nle]ERVEWLRKKLQDVHNY-OH; N-terminus and C-terminus assumed): the inhibition constant (Ki) at PTH1R receptor [2] stood at 73 nM; at PTH1R receptor [3], 3.5 nM. Besides, the Kd worked out at 4 nM at PTH1R receptor [2] (read-out: Kbinding) and 9 nM at PTH1R receptor [3] (read-out: Kbinding).

B1: Phe-Nle-His-Asn-Leu-Gly-Lys-(epsilon-3-phenylpropanoyl)-His-Leu-Ser-Ser-Nle-Glu-Arg-Val-Glu-Trp-Leu-Arg-Lys-Lys-Leu-Gln-Asp-Val-His-Asn-Tyr (peptide)
peptide: FXHNLGKHLSSXERVEWLRKKLQDVHNY
modifications: Nle (norleucine) at peptide positions 2 and 12 (written X in letters); Lys at peptide position 7 carries epsilon-3-phenylpropanoyl
Regarding B1, the Ki in experiment [4] was determined as 73 nM; in experiment [5], 3.5 nM.
